Data as given in ChEMBL document CHEMBL5442219.

How the values were obtained:
Conditions in all cases: Compound concentration 10 µM
[1] = target: Muscarinic acetylcholine receptor M3 (Homo sapiens) (UniProt P20309)
Description: PDSP Primary Binding target: CHRM3 - Compounds are tested at 10 uM concentration, plate are incubated at room temperature in the dark for 90 minutes. Reaction are stopped by vacuum filtration onto 0.3% polyethyleneimine soaked filter mats using Filtermate harvester. Scintilation cocktail is then melted onto microwave-dried filters on a hot plate and the radio activity is counted in Microbia counter.

[2] = target: 5-hydroxytryptamine receptor 1E (Homo sapiens) (UniProt P28566)
Description: PDSP Primary Binding target: HTR1E - Compounds are tested at 10 uM concentration, plate are incubated at room temperature in the dark for 90 minutes. Reaction are stopped by vacuum filtration onto 0.3% polyethyleneimine soaked filter mats using Filtermate harvester. Scintilation cocktail is then melted onto microwave-dried filters on a hot plate and the radio activity is counted in Microbia counter.

[3] = target: D(2) dopamine receptor (Homo sapiens) (UniProt P14416)
Description: PDSP Primary Binding target: DRD2 - Compounds are tested at 10 uM concentration, plate are incubated at room temperature in the dark for 90 minutes. Reaction are stopped by vacuum filtration onto 0.3% polyethyleneimine soaked filter mats using Filtermate harvester. Scintilation cocktail is then melted onto microwave-dried filters on a hot plate and the radio activity is counted in Microbia counter.

[4] = target: D(1A) dopamine receptor (Homo sapiens) (UniProt P21728)
Description: PDSP Primary Binding target: DRD1 - Compounds are tested at 10 uM concentration, plate are incubated at room temperature in the dark for 90 minutes. Reaction are stopped by vacuum filtration onto 0.3% polyethyleneimine soaked filter mats using Filtermate harvester. Scintilation cocktail is then melted onto microwave-dried filters on a hot plate and the radio activity is counted in Microbia counter.

[5] = target: D(3) dopamine receptor (Homo sapiens) (UniProt P35462)
D(3) dopamine receptor (Homo sapiens), sequence (P35462 whole entry): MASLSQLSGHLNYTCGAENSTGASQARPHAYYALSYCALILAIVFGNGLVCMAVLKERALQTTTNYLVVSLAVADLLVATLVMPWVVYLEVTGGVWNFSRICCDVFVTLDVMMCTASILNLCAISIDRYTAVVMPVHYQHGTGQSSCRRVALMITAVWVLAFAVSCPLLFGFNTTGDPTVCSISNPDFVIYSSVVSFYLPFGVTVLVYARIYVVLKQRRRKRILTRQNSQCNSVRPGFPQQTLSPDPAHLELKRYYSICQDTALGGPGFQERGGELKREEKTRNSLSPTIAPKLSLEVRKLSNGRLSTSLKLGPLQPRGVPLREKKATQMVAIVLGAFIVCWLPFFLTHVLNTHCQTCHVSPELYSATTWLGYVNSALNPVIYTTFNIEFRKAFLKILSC
Description: PDSP Primary Binding target: DRD3 - Compounds are tested at 10 uM concentration, plate are incubated at room temperature in the dark for 90 minutes. Reaction are stopped by vacuum filtration onto 0.3% polyethyleneimine soaked filter mats using Filtermate harvester. Scintilation cocktail is then melted onto microwave-dried filters on a hot plate and the radio activity is counted in Microbia counter.

[6] = target: Sigma intracellular receptor 2 (Homo sapiens) (UniProt Q5BJF2)
Sigma intracellular receptor 2 (Homo sapiens), sequence (Q5BJF2 whole entry): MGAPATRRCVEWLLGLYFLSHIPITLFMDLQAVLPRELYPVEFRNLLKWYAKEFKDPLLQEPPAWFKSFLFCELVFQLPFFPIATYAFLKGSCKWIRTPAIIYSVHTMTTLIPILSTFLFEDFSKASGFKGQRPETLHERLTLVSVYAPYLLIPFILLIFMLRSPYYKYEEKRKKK
Description: PDSP Primary Binding target: TMEM97 - Compounds are tested at 10 uM concentration, plate are incubated at room temperature in the dark for 90 minutes. Reaction are stopped by vacuum filtration onto 0.3% polyethyleneimine soaked filter mats using Filtermate harvester. Scintilation cocktail is then melted onto microwave-dried filters on a hot plate and the radio activity is counted in Microbia counter.

[7] = target: T1, 5-hydroxytryptamine receptor 2C (Homo sapiens) (UniProt P28335)
T1 sequence (whole entry): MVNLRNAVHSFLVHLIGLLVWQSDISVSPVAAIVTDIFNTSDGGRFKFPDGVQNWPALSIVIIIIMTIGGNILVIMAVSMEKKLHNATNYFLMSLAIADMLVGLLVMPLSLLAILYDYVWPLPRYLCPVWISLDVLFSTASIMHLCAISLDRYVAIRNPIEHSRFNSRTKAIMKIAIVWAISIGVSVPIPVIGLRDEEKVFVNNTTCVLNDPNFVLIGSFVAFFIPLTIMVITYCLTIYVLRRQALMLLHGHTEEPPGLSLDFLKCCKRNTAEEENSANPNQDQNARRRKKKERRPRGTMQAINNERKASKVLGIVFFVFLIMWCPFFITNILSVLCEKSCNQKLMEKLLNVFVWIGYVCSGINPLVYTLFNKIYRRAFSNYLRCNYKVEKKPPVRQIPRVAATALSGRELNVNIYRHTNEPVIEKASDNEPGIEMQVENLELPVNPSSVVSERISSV
Description: PDSP Primary Binding target: HTR2C - Compounds are tested at 10 uM concentration, plate are incubated at room temperature in the dark for 90 minutes. Reaction are stopped by vacuum filtration onto 0.3% polyethyleneimine soaked filter mats using Filtermate harvester. Scintilation cocktail is then melted onto microwave-dried filters on a hot plate and the radio activity is counted in Microbia counter.

[8] = target: T2, Alpha-1D adrenergic receptor (Homo sapiens) (UniProt P25100)
T2 sequence (whole entry): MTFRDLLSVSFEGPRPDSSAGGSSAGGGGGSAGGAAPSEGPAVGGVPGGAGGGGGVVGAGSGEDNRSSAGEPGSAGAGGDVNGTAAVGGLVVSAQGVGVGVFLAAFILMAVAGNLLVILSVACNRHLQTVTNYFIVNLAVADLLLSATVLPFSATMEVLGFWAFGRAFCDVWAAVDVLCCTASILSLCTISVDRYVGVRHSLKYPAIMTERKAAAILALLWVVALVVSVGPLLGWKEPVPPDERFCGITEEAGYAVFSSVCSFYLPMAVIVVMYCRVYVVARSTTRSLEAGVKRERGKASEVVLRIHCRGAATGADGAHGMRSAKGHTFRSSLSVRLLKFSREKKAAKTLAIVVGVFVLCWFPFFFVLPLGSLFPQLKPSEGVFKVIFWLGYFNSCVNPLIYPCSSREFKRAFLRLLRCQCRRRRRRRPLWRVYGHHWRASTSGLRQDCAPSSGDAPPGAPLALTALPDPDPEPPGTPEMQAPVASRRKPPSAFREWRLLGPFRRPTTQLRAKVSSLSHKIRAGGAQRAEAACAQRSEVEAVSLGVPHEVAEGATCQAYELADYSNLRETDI
Description: PDSP Primary Binding target: ADRA1D - Compounds are tested at 10 uM concentration, plate are incubated at room temperature in the dark for 90 minutes. Reaction are stopped by vacuum filtration onto 0.3% polyethyleneimine soaked filter mats using Filtermate harvester. Scintilation cocktail is then melted onto microwave-dried filters on a hot plate and the radio activity is counted in Microbia counter.

[9] = target: Histamine H3 receptor (Homo sapiens) (UniProt Q9Y5N1)
Histamine H3 receptor (Homo sapiens), sequence (Q9Y5N1 whole entry): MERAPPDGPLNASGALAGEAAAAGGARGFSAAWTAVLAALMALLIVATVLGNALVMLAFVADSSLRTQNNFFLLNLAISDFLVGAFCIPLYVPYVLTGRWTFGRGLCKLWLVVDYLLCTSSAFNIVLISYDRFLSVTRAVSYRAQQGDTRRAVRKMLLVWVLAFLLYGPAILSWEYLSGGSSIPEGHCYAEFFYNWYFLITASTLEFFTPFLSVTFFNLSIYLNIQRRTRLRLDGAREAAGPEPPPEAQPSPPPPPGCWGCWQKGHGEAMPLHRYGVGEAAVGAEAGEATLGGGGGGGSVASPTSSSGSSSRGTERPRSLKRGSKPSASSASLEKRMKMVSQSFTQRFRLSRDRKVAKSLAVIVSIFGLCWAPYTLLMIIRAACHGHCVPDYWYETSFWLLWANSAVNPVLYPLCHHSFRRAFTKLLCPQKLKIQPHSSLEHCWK
Description: PDSP Primary Binding target: HRH3 - Compounds are tested at 10 uM concentration, plate are incubated at room temperature in the dark for 90 minutes. Reaction are stopped by vacuum filtration onto 0.3% polyethyleneimine soaked filter mats using Filtermate harvester. Scintilation cocktail is then melted onto microwave-dried filters on a hot plate and the radio activity is counted in Microbia counter.

[10] = target: T3, Muscarinic acetylcholine receptor M1 (Homo sapiens) (UniProt P11229)
T3 sequence (whole entry): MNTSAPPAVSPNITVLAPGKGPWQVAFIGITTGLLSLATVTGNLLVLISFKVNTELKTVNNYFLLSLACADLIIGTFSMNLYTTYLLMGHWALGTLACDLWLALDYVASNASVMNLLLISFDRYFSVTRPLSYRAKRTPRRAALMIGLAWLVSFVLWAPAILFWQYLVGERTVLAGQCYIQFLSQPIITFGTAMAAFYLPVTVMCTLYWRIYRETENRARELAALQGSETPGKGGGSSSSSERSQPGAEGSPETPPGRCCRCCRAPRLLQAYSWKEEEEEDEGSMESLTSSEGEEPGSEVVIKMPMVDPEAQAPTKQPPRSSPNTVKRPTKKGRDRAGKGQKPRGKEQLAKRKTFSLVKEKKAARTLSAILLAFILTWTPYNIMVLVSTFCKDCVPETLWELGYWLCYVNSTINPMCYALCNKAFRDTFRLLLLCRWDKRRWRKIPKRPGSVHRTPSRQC
Description: PDSP Primary Binding target: CHRM1 - Compounds are tested at 10 uM concentration, plate are incubated at room temperature in the dark for 90 minutes. Reaction are stopped by vacuum filtration onto 0.3% polyethyleneimine soaked filter mats using Filtermate harvester. Scintilation cocktail is then melted onto microwave-dried filters on a hot plate and the radio activity is counted in Microbia counter.

[11] = target: T4, Alpha-1A adrenergic receptor (Homo sapiens) (UniProt P35348)
T4 sequence (whole entry): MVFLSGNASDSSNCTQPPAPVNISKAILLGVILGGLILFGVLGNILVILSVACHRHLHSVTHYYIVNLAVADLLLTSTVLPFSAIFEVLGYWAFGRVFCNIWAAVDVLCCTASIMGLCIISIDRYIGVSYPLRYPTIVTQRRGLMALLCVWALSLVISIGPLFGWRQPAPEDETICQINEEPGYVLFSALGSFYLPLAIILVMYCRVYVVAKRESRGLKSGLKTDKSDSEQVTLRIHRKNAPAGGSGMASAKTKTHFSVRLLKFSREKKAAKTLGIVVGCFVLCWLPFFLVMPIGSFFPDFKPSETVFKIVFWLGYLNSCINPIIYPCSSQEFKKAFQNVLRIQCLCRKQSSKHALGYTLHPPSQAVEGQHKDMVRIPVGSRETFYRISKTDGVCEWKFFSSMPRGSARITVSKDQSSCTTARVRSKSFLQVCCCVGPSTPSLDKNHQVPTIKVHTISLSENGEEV
Description: PDSP Primary Binding target: ADRA1A - Compounds are tested at 10 uM concentration, plate are incubated at room temperature in the dark for 90 minutes. Reaction are stopped by vacuum filtration onto 0.3% polyethyleneimine soaked filter mats using Filtermate harvester. Scintilation cocktail is then melted onto microwave-dried filters on a hot plate and the radio activity is counted in Microbia counter.

[12] = target: T5, Muscarinic acetylcholine receptor M2 (Homo sapiens) (UniProt P08172)
T5 sequence (whole entry): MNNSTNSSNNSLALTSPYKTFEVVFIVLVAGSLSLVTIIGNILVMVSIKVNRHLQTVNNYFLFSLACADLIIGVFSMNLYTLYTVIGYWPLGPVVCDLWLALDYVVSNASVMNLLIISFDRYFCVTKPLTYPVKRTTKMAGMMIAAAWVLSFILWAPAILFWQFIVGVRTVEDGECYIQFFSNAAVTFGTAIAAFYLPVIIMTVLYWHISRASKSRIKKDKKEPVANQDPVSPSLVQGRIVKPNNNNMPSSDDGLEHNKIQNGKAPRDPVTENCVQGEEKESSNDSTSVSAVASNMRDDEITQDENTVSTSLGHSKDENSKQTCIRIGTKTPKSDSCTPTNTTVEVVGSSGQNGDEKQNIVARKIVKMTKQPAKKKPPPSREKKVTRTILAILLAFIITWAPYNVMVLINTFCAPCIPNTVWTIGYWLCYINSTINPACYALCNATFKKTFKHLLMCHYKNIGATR
Description: PDSP Primary Binding target: CHRM2 - Compounds are tested at 10 uM concentration, plate are incubated at room temperature in the dark for 90 minutes. Reaction are stopped by vacuum filtration onto 0.3% polyethyleneimine soaked filter mats using Filtermate harvester. Scintilation cocktail is then melted onto microwave-dried filters on a hot plate and the radio activity is counted in Microbia counter.

D(2) dopamine receptor (Homo sapiens), sequence (P14416 whole entry): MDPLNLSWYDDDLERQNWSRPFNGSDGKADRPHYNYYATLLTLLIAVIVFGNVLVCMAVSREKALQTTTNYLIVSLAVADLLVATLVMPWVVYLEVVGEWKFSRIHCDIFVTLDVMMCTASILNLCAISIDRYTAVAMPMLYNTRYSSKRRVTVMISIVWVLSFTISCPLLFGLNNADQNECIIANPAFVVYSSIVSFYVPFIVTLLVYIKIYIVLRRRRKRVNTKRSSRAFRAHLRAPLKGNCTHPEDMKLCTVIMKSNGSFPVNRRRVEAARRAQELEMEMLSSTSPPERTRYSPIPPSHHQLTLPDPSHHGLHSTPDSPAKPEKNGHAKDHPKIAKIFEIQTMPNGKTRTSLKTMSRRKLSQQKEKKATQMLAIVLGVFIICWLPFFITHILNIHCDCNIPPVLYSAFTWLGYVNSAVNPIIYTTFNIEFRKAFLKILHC
D(1A) dopamine receptor (Homo sapiens), sequence (P21728 whole entry): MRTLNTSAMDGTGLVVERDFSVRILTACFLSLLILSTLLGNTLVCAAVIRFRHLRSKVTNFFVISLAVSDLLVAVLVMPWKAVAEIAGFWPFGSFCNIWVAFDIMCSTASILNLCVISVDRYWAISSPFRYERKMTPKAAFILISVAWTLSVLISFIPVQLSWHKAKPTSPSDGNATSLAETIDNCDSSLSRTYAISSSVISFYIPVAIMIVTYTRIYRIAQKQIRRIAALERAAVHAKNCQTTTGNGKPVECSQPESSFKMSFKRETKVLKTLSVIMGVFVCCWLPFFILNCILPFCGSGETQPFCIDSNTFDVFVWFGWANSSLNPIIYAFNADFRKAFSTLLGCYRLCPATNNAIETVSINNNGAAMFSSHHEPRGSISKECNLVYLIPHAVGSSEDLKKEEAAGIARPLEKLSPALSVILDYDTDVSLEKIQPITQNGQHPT
5-hydroxytryptamine receptor 1E (Homo sapiens), sequence (P28566 whole entry): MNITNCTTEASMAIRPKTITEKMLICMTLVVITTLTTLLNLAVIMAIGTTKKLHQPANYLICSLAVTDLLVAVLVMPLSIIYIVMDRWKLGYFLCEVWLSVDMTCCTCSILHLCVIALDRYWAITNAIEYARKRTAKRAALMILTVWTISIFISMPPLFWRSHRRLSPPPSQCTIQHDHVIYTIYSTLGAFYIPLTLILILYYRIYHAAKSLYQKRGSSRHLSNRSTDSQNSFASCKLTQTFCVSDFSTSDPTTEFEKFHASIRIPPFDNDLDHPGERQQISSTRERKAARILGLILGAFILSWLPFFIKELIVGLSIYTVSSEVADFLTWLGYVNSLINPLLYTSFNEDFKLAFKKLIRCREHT
Muscarinic acetylcholine receptor M3 (Homo sapiens), sequence (P20309 whole entry, looked up): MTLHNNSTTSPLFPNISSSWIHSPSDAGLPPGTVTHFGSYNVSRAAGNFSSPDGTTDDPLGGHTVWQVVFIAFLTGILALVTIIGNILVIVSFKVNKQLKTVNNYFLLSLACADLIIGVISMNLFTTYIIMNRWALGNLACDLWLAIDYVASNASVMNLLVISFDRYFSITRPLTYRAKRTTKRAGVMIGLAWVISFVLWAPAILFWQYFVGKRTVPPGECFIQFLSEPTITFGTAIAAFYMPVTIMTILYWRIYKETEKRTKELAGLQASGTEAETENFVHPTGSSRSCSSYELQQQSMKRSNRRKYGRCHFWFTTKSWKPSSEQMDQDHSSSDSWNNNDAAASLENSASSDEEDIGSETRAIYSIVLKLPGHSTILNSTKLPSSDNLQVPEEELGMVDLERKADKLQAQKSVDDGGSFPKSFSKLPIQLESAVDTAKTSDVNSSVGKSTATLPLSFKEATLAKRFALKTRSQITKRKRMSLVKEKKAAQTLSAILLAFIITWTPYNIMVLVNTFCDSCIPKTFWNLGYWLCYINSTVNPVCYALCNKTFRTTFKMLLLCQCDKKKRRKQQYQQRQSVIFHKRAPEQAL

CNC[C@H](O)c1cccc(O)c1
inhibition [1]: -8.03% | inhibition [2]: 23.9% | inhibition [3]: -2.53% | inhibition [4]: 11.1% | inhibition [5]: 12.7% | inhibition [6]: 24.9% | inhibition [7]: 16.3% | inhibition [8]: 26.6% | inhibition [9]: 13.1% | inhibition [10]: 7.7% | inhibition [11]: 27.4%

CCN(CC)CCCCC1CCN(CC(=O)N2c3ccccc3C(=O)Nc3cccnc32)CC1
inhibition [1]: 88.7% | inhibition [3]: 2.83% | inhibition [4]: 102% | inhibition [5]: 13.8% | inhibition [6]: 82.1% | inhibition [12]: 81.4% | inhibition [8]: -4.13% | inhibition [9]: 43% | inhibition [10]: 89.1% | inhibition [11]: -8.07%

CCCCc1nc(Cl)c(CO)n1Cc1ccc(-c2ccccc2-c2nnn[nH]2)cc1
inhibition [2]: 7.06% | inhibition [3]: 23.9% | inhibition [4]: 10.3% | inhibition [5]: 46.3% | inhibition [6]: 27.4% | inhibition [7]: 55% | inhibition [12]: -0.57% | inhibition [8]: 13.1% | inhibition [9]: 31.4% | inhibition [11]: -0.59%

CC(C)NCC(O)COc1ccc(CCOCC2CC2)cc1 (centres undefined)
inhibition [1]: 1.59% | inhibition [2]: 5.21% | inhibition [3]: 3.26% | inhibition [4]: 1.75% | inhibition [5]: 5.81% | inhibition [6]: 76.2% | inhibition [12]: -4.15% | inhibition [8]: 5.75% | inhibition [9]: 28.3% | inhibition [10]: 0.88% | inhibition [11]: -7.39%

S=C(NCCCc1c[nH]cn1)NCCCN(Cc1ccc(Cl)c(Cl)c1)c1ccc(Br)cn1
inhibition [1]: 48.4% | inhibition [2]: 7.46% | inhibition [3]: 17.1% | inhibition [4]: 61.5% | inhibition [5]: 62.3% | inhibition [6]: 97.7% | inhibition [7]: 100% | inhibition [8]: 65.9% | inhibition [9]: 100% | inhibition [10]: 60.7% | inhibition [11]: 84.5%

NC[C@@H]1O[C@H](C23CC4CC(CC(C4)C2)C3)Cc2c1ccc(O)c2O
inhibition [1]: 12.7% | inhibition [2]: 22.3% | inhibition [3]: 21.6% | inhibition [4]: 100% | inhibition [5]: 81% | inhibition [6]: 81.7% | inhibition [7]: 31.6% | inhibition [12]: -9.03% | inhibition [8]: 3.98% | inhibition [9]: 24.8% | inhibition [10]: -5.8% | inhibition [11]: -1.53%

Cc1ccccc1C(=O)Nc1ccc(C(=O)N2CCCC(O)c3cc(Cl)ccc32)c(C)c1 (centres undefined)
inhibition [1]: 17.3% | inhibition [2]: 0.51% | inhibition [3]: 9.21% | inhibition [4]: 9.57% | inhibition [5]: 33% | inhibition [6]: 91.8% | inhibition [7]: 78.3% | inhibition [12]: 2.3% | inhibition [8]: 12.7% | inhibition [9]: 6.39% | inhibition [10]: -6.43% | inhibition [11]: 8.56%

C=CCN1C[C@H](C)N([C@H](c2ccc(C(=O)N(CC)CC)cc2)c2cccc(O)c2)C[C@H]1C
inhibition [1]: -6.19% | inhibition [2]: 19.5% | inhibition [3]: -2.85% | inhibition [4]: 2.02% | inhibition [5]: 6.85% | inhibition [6]: 46.7% | inhibition [7]: 0.93% | inhibition [9]: 0.95% | inhibition [10]: 4.09% | inhibition [11]: 16.8%

Oc1ccc2c3c1O[C@H]1c4[nH]c5c(c4C[C@@]4(O)[C@@H](C2)N(CC2CC2)CC[C@]314)C[C@@]1(O)[C@H]2Cc3ccc(O)c4c3[C@@]1(CCN2CC1CC1)[C@H]5O4
inhibition [1]: 3.43% | inhibition [3]: 1.13% | inhibition [4]: 33.5% | inhibition [5]: 4.68% | inhibition [6]: 30.2% | inhibition [7]: 10.5% | inhibition [12]: 0.51% | inhibition [8]: 4.88% | inhibition [9]: 6.5% | inhibition [10]: 4.47% | inhibition [11]: 30.1%

C[C@@H](N)Cc1c[nH]cn1
inhibition [1]: -7.33% | inhibition [2]: 14.9% | inhibition [3]: -4.88% | inhibition [4]: 14.2% | inhibition [5]: 8.41% | inhibition [6]: 20.2% | inhibition [7]: 5.48% | inhibition [12]: -5.01% | inhibition [9]: 103% | inhibition [10]: 2.87% | inhibition [11]: 8.76%

O=C(Cc1ccc(Cl)c(Cl)c1)N1CCCC[C@H]1CN1CCCC1
inhibition [2]: 1.08% | inhibition [3]: 44.5% | inhibition [5]: 18.5% | inhibition [6]: 92.3% | inhibition [7]: -3.64% | inhibition [12]: 12% | inhibition [8]: 12.3% | inhibition [9]: 37.3% | inhibition [10]: 9.74% | inhibition [11]: 31.2%

N#Cc1ccc2[nH]cc(CCCCN3CCN(c4ccc5oc(C(N)=O)cc5c4)CC3)c2c1
inhibition [1]: 12.6% | inhibition [2]: 21.2% | inhibition [3]: 79.4% | inhibition [4]: 22.6% | inhibition [5]: 95.2% | inhibition [6]: 80.3% | inhibition [7]: 43.3% | inhibition [12]: -4.48% | inhibition [8]: 75.5% | inhibition [9]: 31.9% | inhibition [10]: 1.49% | inhibition [11]: 95.5%

COC(=O)C1=C(C)NC(C)=C(C(=O)OCCCN2CCC(c3ccccc3)(c3ccccc3)CC2)[C@H]1c1cccc([N+](=O)[O-])c1
inhibition [1]: 61.2% | inhibition [2]: 40% | inhibition [3]: 79.2% | inhibition [4]: 80.7% | inhibition [5]: 81.8% | inhibition [6]: 98.7% | inhibition [7]: 58.1% | inhibition [12]: 40.4% | inhibition [8]: 83.9% | inhibition [9]: 62.2% | inhibition [10]: 30.9% | inhibition [11]: 98.9%

COc1cccc([C@H](O)C2CCN(CCc3ccc(F)cc3)CC2)c1OC
inhibition [1]: -8.67% | inhibition [2]: -0.41% | inhibition [3]: 4.57% | inhibition [4]: 63.9% | inhibition [5]: 9.18% | inhibition [6]: 95.9% | inhibition [12]: 1.5% | inhibition [8]: 34.5% | inhibition [9]: 3.17% | inhibition [11]: 31.6%

CCCCN1CCC(COC(=O)c2cc(Cl)c(N)c3c2OCCO3)CC1
inhibition [1]: 14.6% | inhibition [2]: 22.6% | inhibition [3]: 43.7% | inhibition [4]: 3.42% | inhibition [5]: 58.8% | inhibition [6]: 96.8% | inhibition [7]: 58.2% | inhibition [12]: 5.99% | inhibition [8]: 24.6% | inhibition [9]: 32.8% | inhibition [11]: 52.9%
